Experimental data: ChEMBL document CHEMBL5442334, “ASAP - In vitro safety pharmacology profile” (2024)

How the values were obtained:
Conditions in all cases: Test compound concentration 10.0 uM
[1] = species: Rattus norvegicus; experiment: SafetyScreen: KV (Non-Selective) Rat Potassium Ion Channel [125I] alpha-Dendrotoxin Binding LeadHunter Assay, catalogue number: 166
[2] = molecular target: 5-hydroxytryptamine receptor 2A (Homo sapiens) (UniProt P28223); experiment: SafetyScreen: 5-HT2A Human Serotonin GPCR Binding Agonist Radioligand LeadHunter Assay, catalogue number: 471
[3] = molecular target: Sodium-dependent dopamine transporter (Homo sapiens) (UniProt Q01959); experiment: SafetyScreen: DAT Human Dopamine Transporter Binding Antagonist Radioligand LeadHunter Assay, catalogue number: 52
[4] = molecular target: Adenosine receptor A2a (Homo sapiens) (UniProt P29274); experiment: SafetyScreen: A2A Human Adenosine GPCR Binding Agonist Radioligand LeadHunter Assay, catalogue number: 4
[5] = molecular target: 3',5'-cyclic-AMP phosphodiesterase 4D (Homo sapiens) (UniProt Q08499); experiment: SafetyScreen: PDE4D2 Human Phosphodiesterase Enzymatic LeadHunter Assay, catalogue number: 4077; format: functional
[6] = molecular target: Cannabinoid receptor 1 (Homo sapiens) (UniProt P21554); experiment: SafetyScreen: CB1 Human Cannabinoid GPCR Binding Agonist Radioligand LeadHunter Assay, catalogue number: 4708
[7] = molecular target: Beta-1 adrenergic receptor (Homo sapiens) (UniProt P08588); experiment: SafetyScreen: beta1 Human Adrenoceptor GPCR Binding Agonist Radioligand LeadHunter Assay, catalogue number: 18
[8] = molecular target: T1, Alpha-2A adrenergic receptor (Homo sapiens) (UniProt P08913); experiment: SafetyScreen: alpha2A Human Adrenoceptor GPCR Binding Antagonist Radioligand LeadHunter Assay, catalogue number: 13
T1 sequence (whole entry): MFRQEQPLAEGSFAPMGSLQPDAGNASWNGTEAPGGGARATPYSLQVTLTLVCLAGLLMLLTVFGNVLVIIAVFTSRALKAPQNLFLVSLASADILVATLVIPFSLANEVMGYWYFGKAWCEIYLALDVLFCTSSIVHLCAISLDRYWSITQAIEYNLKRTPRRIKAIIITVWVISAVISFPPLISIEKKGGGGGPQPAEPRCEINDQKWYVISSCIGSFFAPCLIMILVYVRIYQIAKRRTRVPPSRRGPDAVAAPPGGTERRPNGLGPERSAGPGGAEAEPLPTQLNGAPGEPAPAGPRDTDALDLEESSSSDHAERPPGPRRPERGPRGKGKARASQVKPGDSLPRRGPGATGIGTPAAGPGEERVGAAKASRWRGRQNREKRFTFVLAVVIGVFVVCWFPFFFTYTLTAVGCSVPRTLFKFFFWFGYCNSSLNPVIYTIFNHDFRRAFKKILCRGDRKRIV

[9] = molecular target: GABA-A receptor; anion channel (Rattus norvegicus) (UniProt O09028+P15431+P18506+P18508+P19969+P20236+P23574+P23576+P28471+P28473+P30191+P62813+P63079+P63138+Q91ZM7+Q9ES14); experiment: SafetyScreen: GABAA (Non-Selective) Rat Ion Channel [3H] Flunitrazepam Binding Agonist Radioligand LeadHunter Assay, catalogue number: 28; format: protein-complex assay
[10] = molecular target: 5-hydroxytryptamine receptor 2B (Homo sapiens) (UniProt P41595); experiment: SafetyScreen: 5-HT2B Human Serotonin GPCR [125I](±)DOI Binding Agonist Radioligand LeadHunter Assay, catalogue number: 1333
[11] = molecular target: Vasopressin V1a receptor (Homo sapiens) (UniProt P37288); experiment: SafetyScreen: V1A Human Vasopressin / Oxytocin GPCR Binding Agonist Radioligand LeadHunter Assay, catalogue number: 159
[12] = molecular target: Tyrosine-protein kinase Lck (Homo sapiens) (UniProt P06239); experiment: SafetyScreen: Lck Human TK Kinase Enzymatic TR-FRET [Km ATP] LeadHunter Assay, catalogue number: 2906; format: functional
[13] = molecular target: T2, Prostaglandin G/H synthase 2 (Homo sapiens) (UniProt P35354); experiment: SafetyScreen: COX2 Human Cyclooxygenase Enzymatic LeadHunter Assay, catalogue number: 4186; format: functional
T2 sequence (whole entry): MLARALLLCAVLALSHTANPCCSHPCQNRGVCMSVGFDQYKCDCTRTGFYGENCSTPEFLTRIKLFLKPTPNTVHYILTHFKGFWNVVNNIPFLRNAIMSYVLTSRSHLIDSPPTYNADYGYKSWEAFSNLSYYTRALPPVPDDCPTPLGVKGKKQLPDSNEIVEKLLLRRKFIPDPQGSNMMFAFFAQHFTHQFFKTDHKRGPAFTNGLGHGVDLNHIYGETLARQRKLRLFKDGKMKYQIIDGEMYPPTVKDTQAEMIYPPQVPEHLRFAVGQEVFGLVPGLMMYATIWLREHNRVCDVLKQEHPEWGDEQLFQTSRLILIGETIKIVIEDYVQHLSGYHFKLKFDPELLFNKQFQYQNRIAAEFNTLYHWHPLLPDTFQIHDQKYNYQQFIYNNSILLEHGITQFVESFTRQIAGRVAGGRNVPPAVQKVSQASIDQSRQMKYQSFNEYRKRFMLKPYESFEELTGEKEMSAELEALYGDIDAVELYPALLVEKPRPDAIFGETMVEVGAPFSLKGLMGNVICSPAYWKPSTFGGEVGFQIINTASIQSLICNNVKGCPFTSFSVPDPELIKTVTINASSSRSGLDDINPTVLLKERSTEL

[14] = molecular target: T3, Alpha-1A adrenergic receptor (Homo sapiens) (UniProt P35348); experiment: SafetyScreen: alpha1A Human Adrenoceptor GPCR Binding Antagonist Radioligand LeadHunter Assay, catalogue number: 2338
T3 sequence (whole entry): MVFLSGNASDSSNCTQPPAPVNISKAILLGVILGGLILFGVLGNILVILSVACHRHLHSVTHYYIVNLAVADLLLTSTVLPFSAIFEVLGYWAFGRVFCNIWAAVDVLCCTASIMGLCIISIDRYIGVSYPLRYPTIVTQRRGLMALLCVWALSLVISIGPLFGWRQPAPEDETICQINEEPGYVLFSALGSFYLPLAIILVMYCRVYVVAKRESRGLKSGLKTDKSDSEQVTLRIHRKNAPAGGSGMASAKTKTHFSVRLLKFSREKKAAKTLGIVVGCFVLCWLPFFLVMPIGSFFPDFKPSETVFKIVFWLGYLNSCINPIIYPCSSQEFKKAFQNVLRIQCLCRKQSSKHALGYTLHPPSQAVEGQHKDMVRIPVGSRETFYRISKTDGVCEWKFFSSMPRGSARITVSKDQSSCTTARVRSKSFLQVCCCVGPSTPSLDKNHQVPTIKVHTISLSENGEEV

[15] = molecular target: Mu-type opioid receptor (Homo sapiens) (UniProt P35372); experiment: SafetyScreen: mu (MOP) Human Opioid GPCR Binding Agonist Radioligand LeadHunter Assay, catalogue number: 118
[16] = molecular target: 5-hydroxytryptamine receptor 1B (Homo sapiens) (UniProt P28222); experiment: SafetyScreen: 5-HT1B Human Serotonin GPCR Binding Antagonist Radioligand LeadHunter Assay, catalogue number: 4376
[17] = molecular target: Prostaglandin G/H synthase 1 (Homo sapiens) (UniProt P23219); experiment: SafetyScreen: COX1 Human Cyclooxygenase Enzymatic LeadHunter Assay, catalogue number: 4173; format: functional

Sequence of 5-hydroxytryptamine receptor 2A (Homo sapiens) (P28223 whole entry): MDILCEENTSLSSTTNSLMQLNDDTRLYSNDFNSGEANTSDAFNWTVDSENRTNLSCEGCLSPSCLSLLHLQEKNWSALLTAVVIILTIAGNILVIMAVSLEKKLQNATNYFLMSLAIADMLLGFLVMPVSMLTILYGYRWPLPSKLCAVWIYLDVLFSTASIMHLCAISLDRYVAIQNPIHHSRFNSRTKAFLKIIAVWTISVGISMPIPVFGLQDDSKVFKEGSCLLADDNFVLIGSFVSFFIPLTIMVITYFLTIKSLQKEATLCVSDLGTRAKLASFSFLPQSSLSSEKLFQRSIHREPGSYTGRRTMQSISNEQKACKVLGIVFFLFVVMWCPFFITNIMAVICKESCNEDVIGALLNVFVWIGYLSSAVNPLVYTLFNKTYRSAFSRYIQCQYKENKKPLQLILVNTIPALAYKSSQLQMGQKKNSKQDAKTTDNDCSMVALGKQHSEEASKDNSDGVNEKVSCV
Sequence of Adenosine receptor A2a (Homo sapiens) (P29274 whole entry): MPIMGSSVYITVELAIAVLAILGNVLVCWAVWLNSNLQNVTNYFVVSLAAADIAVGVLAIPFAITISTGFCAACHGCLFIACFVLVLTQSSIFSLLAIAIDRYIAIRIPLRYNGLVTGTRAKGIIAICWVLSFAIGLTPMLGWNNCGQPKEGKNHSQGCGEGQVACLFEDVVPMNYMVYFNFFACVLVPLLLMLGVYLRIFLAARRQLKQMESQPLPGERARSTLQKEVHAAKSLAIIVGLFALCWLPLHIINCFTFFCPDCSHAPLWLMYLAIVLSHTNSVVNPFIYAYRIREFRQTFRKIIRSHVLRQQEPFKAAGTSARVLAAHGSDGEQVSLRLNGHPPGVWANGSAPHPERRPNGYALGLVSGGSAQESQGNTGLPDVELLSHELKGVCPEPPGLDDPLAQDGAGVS
Sequence of Cannabinoid receptor 1 (Homo sapiens) (P21554 whole entry): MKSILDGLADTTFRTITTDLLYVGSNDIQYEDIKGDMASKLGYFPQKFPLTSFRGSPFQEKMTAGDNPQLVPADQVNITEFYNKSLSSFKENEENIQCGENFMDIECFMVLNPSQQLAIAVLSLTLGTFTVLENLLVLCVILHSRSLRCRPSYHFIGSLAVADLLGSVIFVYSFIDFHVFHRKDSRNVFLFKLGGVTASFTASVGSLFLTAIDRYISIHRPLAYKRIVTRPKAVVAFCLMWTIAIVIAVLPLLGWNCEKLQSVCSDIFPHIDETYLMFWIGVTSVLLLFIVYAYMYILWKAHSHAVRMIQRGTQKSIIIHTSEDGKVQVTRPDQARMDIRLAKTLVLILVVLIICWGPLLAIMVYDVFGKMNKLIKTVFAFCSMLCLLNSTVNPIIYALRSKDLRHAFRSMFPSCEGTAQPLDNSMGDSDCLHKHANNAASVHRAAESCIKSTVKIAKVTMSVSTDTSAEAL
Sequence of Vasopressin V1a receptor (Homo sapiens) (P37288 whole entry, looked up): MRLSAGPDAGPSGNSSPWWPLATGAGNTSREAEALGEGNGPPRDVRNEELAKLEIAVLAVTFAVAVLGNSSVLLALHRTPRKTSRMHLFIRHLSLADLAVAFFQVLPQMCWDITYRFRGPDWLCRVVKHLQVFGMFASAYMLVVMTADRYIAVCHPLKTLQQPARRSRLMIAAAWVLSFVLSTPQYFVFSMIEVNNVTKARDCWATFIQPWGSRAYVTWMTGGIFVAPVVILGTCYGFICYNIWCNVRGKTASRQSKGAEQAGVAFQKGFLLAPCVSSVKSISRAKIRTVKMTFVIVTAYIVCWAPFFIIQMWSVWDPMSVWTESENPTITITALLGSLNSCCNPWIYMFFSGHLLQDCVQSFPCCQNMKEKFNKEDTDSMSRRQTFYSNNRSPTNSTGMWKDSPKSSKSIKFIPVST
Sequence of Mu-type opioid receptor (Homo sapiens) (P35372 whole entry): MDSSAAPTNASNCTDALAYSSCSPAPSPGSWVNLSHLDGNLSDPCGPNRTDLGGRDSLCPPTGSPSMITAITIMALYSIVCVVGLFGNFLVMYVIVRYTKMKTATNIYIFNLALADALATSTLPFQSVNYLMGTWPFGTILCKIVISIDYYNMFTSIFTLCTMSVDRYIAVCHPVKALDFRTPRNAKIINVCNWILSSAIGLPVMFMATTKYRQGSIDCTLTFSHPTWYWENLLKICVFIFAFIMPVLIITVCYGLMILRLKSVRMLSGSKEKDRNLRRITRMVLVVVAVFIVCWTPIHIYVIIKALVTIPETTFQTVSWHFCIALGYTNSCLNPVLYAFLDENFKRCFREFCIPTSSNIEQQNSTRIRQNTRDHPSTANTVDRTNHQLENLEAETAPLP
Sequence of Tyrosine-protein kinase Lck (Homo sapiens) (P06239 2-509 limits assumed): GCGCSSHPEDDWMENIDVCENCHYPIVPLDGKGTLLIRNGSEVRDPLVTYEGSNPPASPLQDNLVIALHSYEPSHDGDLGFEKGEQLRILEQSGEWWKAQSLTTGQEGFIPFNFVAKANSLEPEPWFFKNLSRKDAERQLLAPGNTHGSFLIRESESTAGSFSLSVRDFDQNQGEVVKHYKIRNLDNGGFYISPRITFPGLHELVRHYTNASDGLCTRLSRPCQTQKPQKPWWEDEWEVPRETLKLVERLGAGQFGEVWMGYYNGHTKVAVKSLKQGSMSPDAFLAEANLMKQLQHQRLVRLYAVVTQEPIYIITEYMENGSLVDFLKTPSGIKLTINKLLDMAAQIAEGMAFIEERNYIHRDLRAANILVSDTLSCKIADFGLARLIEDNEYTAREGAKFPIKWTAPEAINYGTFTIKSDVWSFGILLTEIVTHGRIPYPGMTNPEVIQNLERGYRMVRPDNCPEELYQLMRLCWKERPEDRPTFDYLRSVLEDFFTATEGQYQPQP
Sequence of Sodium-dependent dopamine transporter (Homo sapiens) (Q01959 whole entry): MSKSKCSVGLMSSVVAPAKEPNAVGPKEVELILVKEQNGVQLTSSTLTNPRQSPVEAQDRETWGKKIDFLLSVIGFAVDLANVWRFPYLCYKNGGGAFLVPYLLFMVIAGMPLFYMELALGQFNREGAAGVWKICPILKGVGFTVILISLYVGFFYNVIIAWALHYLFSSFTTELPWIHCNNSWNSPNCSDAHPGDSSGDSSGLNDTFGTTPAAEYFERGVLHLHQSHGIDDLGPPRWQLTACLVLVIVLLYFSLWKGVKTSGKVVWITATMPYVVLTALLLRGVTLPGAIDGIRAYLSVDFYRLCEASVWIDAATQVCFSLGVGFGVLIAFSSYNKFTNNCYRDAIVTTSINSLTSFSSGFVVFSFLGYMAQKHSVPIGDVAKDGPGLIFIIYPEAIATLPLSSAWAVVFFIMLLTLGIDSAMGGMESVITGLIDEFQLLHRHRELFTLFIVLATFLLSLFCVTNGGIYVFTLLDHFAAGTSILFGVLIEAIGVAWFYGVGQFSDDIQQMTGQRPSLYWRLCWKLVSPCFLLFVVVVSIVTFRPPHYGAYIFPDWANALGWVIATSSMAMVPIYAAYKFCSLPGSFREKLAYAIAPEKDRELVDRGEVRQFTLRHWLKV
Sequence of 3',5'-cyclic-AMP phosphodiesterase 4D (Homo sapiens) (Q08499 whole entry): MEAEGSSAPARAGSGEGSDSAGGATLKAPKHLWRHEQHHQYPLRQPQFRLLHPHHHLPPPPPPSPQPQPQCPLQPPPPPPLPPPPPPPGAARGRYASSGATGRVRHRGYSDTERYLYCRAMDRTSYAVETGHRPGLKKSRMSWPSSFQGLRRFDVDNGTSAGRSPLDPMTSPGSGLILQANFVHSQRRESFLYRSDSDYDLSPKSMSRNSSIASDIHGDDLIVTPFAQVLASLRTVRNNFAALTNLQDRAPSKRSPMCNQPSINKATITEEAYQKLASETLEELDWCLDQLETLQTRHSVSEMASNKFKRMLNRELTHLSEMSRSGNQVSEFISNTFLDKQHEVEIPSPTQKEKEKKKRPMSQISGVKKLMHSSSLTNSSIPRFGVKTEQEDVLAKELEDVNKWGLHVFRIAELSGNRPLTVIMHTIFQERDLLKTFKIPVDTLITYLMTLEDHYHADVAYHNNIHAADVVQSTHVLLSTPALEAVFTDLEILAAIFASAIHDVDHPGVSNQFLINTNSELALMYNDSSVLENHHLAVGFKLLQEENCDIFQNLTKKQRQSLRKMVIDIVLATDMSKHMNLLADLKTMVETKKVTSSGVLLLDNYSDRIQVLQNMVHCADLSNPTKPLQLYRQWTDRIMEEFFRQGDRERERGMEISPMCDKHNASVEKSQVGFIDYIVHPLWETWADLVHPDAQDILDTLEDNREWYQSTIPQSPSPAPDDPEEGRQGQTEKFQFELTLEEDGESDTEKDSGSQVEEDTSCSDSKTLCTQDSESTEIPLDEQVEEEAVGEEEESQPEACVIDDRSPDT
Sequence of 5-hydroxytryptamine receptor 2B (Homo sapiens) (P41595 whole entry): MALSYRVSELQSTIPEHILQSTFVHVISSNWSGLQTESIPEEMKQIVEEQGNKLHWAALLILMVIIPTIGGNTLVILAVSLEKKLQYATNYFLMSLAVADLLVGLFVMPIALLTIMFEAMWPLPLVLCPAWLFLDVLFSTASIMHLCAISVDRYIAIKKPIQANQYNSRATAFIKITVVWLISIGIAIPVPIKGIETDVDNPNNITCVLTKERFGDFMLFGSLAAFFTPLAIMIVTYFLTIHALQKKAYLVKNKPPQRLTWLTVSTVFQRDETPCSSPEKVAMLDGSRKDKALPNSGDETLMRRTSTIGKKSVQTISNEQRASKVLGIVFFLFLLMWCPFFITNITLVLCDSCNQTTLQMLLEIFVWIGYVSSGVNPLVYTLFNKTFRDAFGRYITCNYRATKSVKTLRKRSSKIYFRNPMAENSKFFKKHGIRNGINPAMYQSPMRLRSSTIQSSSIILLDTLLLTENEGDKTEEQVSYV
Sequence of 5-hydroxytryptamine receptor 1B (Homo sapiens) (P28222 whole entry): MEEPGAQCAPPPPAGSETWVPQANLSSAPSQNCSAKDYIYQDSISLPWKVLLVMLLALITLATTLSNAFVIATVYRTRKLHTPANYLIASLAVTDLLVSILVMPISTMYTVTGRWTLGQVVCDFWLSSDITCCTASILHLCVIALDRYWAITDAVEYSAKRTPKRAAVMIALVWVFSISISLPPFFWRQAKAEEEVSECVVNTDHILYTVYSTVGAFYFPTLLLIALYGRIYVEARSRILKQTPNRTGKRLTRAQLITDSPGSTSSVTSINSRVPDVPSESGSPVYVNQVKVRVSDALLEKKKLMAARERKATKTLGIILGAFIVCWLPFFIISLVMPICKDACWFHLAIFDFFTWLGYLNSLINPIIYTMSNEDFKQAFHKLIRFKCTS

Row | SMILES | inhibition [1] [%] | inhibition [2] [%] | inhibition [3] [%] | inhibition [4] [%] | inhibition [5] [%] | inhibition [6] [%] | inhibition [7] [%] | inhibition [8] [%] | inhibition [9] [%] | inhibition [10] [%] | inhibition [11] [%] | inhibition [12] [%] | inhibition [13] [%] | inhibition [14] [%] | inhibition [15] [%] | inhibition [16] [%] | inhibition [17] [%]
1 | CC(C)[C@H](Nc1ncnc2[nH]c(-c3cnn(C)c3C#N)cc12)c1ccc2c(n1)OCCO2 | 0 | 15 | 29 | 84 | 70 | 46 | 11 | 7 | -2 | 18 | 27 | 20 | -2 | 34 | 15 |  | 
2 | CC(C)[C@@H](Nc1ncnc2[nH]c(-c3cnn(C)c3C#N)cc12)c1ccc2c(n1)OCCO2 | 2 | 14 | 30 | 69 | 44 | 14 | -2 | 9 | 8 | 40 | 20 | 34 | -7 | 11 | 77 | 4 | 
3 | COc1ccc([C@H](Cc2nnn[nH]2)NC(=O)c2ncnc3[nH]ccc23)cc1 | -1 | -4 | 7 |  | 41 | -8 | -3 | -1 | 0 |  | 5 | 4 | -1 | -7 | -3 |  | 17
4 | C[C@H](C(=O)O)[C@@H](NC(=O)c1ncnc2[nH]ccc12)c1ccc(Br)cc1 | 0 | 1 | 4 |  | 30 |  | -5 | 3 | -4 | -4 | 62 | 4 | 7 | -8 | -10 | 1 | 14
5 | CC(C)[C@@H](Nc1ncnc2[nH]c(C(=O)N[C@@H]3CCN(C)C3)cc12)c1ccc2c(c1)S(=O)(=O)CCC2 | 2 | 1 | 22 | -4 | 37 | -10 | 4 | 6 | 38 | 6 | 6 | 15 | 4 | 38 | 7 | 17 | 44
6 | CC(C)[C@H](Nc1ncnc2[nH]ccc12)c1ccc2c(c1)S(=O)(=O)CCC2 | -10 | 12 | 27 | 11 | 36 |  | 11 | 10 | 4 | 54 | 6 | 10 | 23 | -2 | 8 | 0 | 85
7 | CNCc1cc(-c2cc3c(N[C@@H](c4ccc5c(c4)S(=O)(=O)CCC5)C(C)C)ncnc3[nH]2)co1 | 1 | 29 | 50 | 21 | 43 | 3 | -4 | 15 | 28 |  | 13 | 68 | 24 | 50 | -5 | 45 | -6
8 | CNC(=O)Cn1cc(-c2cc3c(N[C@@H](c4ccc5c(c4)S(=O)(=O)CCC5)C(C)C)ncnc3[nH]2)cn1 | -2 | 12 | 1 | 23 | 41 | -10 | 5 | 4 | 35 | 25 | 15 | 30 | 27 | 11 | 3 | 0 | -8
9 | Cc1nn(C)cc1-c1cc2c(N[C@H](c3ccc4c(c3)S(=O)(=O)CCC4)C(C)C)ncnc2[nH]1 | 1 | 51 | 13 | 13 | 43 | 0 | 1 | 5 | 29 | 43 | 14 | 33 | 23 | 8 | 28 | 15 | 
10 | Cn1ncc(-c2cc3c(N[C@@H](c4ccc5c(n4)OCCO5)C(C)(C)C)ncnc3[nH]2)c1C#N | 5 | -2 | 50 | 52 | 20 | 33 | 11 | 11 | -5 | -5 | 57 | 47 | -9 | 54 | 28 | 18 | 
